According to patent US20070093483A1, “Use of derivatives of 2, 4-dihydro-[1,2,4] triazole-3-thione as inhibitors of the enzyme myeloperoxidase (mpo)” (ASTRAZENECA AB, priority 2003, published 2007):

Target: T1, human MPO (Homo sapiens, UniProt P05164)
T1 sequence (P05164 49-745): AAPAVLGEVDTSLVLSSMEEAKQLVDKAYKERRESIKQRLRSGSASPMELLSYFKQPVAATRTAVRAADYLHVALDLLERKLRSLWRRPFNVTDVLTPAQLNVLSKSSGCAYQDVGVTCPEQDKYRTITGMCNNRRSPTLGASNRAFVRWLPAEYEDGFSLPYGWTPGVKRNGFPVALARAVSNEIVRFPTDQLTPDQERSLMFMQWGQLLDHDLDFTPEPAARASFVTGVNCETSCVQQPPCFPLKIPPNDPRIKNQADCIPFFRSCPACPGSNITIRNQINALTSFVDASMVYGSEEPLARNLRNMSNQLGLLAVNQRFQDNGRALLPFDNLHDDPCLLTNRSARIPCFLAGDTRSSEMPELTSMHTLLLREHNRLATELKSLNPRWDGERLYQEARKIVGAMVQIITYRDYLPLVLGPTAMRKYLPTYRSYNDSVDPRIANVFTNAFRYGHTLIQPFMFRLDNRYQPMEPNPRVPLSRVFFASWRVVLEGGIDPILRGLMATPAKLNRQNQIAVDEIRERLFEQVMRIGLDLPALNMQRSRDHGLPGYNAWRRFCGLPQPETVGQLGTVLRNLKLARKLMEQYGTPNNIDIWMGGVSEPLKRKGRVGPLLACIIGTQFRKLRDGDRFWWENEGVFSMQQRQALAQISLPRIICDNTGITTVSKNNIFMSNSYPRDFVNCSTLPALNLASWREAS
Experiment: MPO inhibition screen (TMB oxidation, absorbance), with or without added tyrosine
Type: biochemical
Conditions: in the presence of tyrosine (final 8 uM); human MPO 2.5 nM; H2O2 100 μM; pH 6.5
Method: Methods for the determination of MPO inhibitory activity are disclosed in co-pending patent application WO 02/090575. The pharmacological activity of compounds according to the invention was tested in the following screen in which the compounds were either tested alone or in the presence of added tyrosine:
Assay buffer: 20 mM sodium/potassium phosphate buffer pH 6.5 containing 10 mM taurine and 100 mM NaCl.
Developing reagent: 2 mM 3,3 ′,5,5′-tetramethylbenzidine (TMB), 200 μM KI, 200 mM acetate buffer pH 5.4 with 20% DNF.
To 10 μl of diluted compounds in assay buffer, 40 μl of human MPO (final concentration 2.5 nM), with or without 20 μM tyrosine (final concentration, if present, 8 uM), was added and the mixture was incubated for 10 minutes at ambient temperature. Then 50 μl of H2O2 (final concentration 100 μM), or assay buffer alone as a control, were added. After incubation for 10 minutes at ambient temperature, the reaction was stopped by adding 10 μl 0.2 mg/ml of catalase (final concentration 18 μg/ml). The reaction mixture was left for an additional 5 minutes before 100 μl of TMB developing reagent was added. The amount of oxidised 3,3′,5,5′-tetramethylbenzidine formed was then measured after about 5 minutes using absorbance spectroscopy at about […]. IC50 values were then determined using standard procedures.

Structure (SMILES) | IC50
COc1ccc(OCc2n[nH]c(=S)n2CC2CCCO2)cc1 (stereo not shown) [Example 20, 5-(4-Methoxyphenoxymethyl)-4-(2-tetrahydrofuran-2-yl-methyl)-2,4-dihydro-[1,2,4]triazole-3-thione] | 11.3 µM
Fc1ccc(-n2c(Cc3ccccc3Cl)n[nH]c2=S)cc1 [Example 29, 5-(2-Chlorobenzyl)-4-(4-fluorophenyl)-2,4-dihydro-[1,2,4]triazole-3-thione] | 3.9 µM
OCC(c1ccccc1)c1n[nH]c(=S)n1-c1ccccc1 (stereo not shown) [Example 57, 5-(2-Hydroxy-1-phenylethyl)-4-phenyl-2,4-dihydro-[1,2,4]triazole-3-thione] | 23.6 µM
Cc1ccccc1-n1c(Cc2c[nH]c3ccccc23)n[nH]c1=S [Example 74, 5-(1H-Indol-3-ylmethyl)-4-(2-methylphenyl)-2,4-dihydro-[1,2,4]triazole-3-thione] | 7.2 µM
